Source: ChEMBL document CHEMBL4261482, “Development of small molecular compounds targeting cancer stem cells” (Medchemcomm, 2017)
Blank lines part the entries; values can stand above or below the compound they belong to.

Assays:
Lu-99 cell line [1] = experiment: Cytotoxicity against human LU99 cells assessed as decrease in cell viability after 72 hrs by CCK8 assay; type: functional, cell-based; settings: Lu-99, 72 h
Daudi = experiment: Cytotoxicity against human Daudi cells assessed as decrease in cell viability after 72 hrs by CCK8 assay; type: functional, cell-based
MKN-1 = experiment: Cytotoxicity against human MKN1 cells assessed as decrease in cell viability after 72 hrs by CCK8 assay; type: functional, cell-based; settings: MKN-1, 72 h
HCT-116 = experiment: Cytotoxicity against human HCT116 cells assessed as decrease in cell viability after 72 hrs by CCK8 assay; type: functional, cell-based; settings: HCT-116, 72 h
MIA PaCa-2 = experiment: Cytotoxicity against human MIAPaCa2 cells assessed as decrease in cell viability after 72 hrs by CCK8 assay; type: functional, cell-based; settings: MIA PaCa-2, 72 h
UMUC3 = experiment: Cytotoxicity against human UM-UC-3 cells assessed as decrease in cell viability after 72 hrs by CCK8 assay; type: functional, cell-based; settings: UMUC3, 72 h
MKN-45 = experiment: Cytotoxicity against human MKN45 cells assessed as decrease in cell viability after 72 hrs by CCK8 assay; type: functional, cell-based; settings: MKN-45, 72 h
DU-4475 [2] = experiment: Cytotoxicity against human DU4475 cells assessed as decrease in cell viability after 72 hrs by CCK8 assay; type: functional, cell-based; settings: DU-4475, 72 h
A549 [3] = experiment: Cytotoxicity against human A549 cells assessed as decrease in cell viability after 72 hrs by CCK8 assay; type: functional, cell-based; settings: A549, 72 h
CWR22R [4] = experiment: Cytotoxicity against human 22Rv1 cells assessed as decrease in cell viability after 72 hrs by CCK8 assay; type: functional, cell-based; settings: 22Rv1, 72 h
T47D [5] = experiment: Cytotoxicity against human T47D cells assessed as decrease in cell viability after 72 hrs by CCK8 assay; type: functional, cell-based
HepG2 = experiment: Cytotoxicity against human HepG2 cells assessed as decrease in cell viability after 72 hrs by CCK8 assay; type: functional, cell-based; settings: HepG2, 72 h
MDA-MB-231 = experiment: Cytotoxicity against human MDA-MB-231 cells assessed as decrease in cell viability after 72 hrs by CCK8 assay; type: functional, cell-based; settings: MDA-MB-231, 72 h
Lu-99 cell line [6] = experiment: Antitumor activity against human LU99 cells xenografted in BALB/cSLC-nu/nu mouse assessed as tumor growth inhibition at 40 mg/kg, iv administered in liposomal formulation on day 1, 4, 8, 11, 15, 18 measured on day 22 relative to control; type: functional; settings: Lu-99, iv, read-out: TGI
Lu-99 cell line [7] = experiment: Antitumor activity against human LU99 cells xenografted in BALB/cSLC-nu/nu mouse assessed as tumor growth inhibition at 100 mg/kg, po qd administered for 14 days measured on day 15 relative to control; type: functional; settings: Lu-99, po, read-out: TGI
DU-4475 [8] = experiment: Antiproliferative activity against human DU4475 cells; type: functional, cell-based
T47D [9] = experiment: Antiproliferative activity against human T47D cells; type: functional, cell-based
CWR22R [10] = experiment: Antiproliferative activity against human 22Rv1 cells; type: functional, cell-based
A549 [11] = experiment: Antiproliferative activity against human A549 cells; type: functional, cell-based
A549 [12] = experiment: Antitumor activity against human A549 cells xenografted in BALB/cSLC-nu/nu mouse assessed as tumor growth inhibition at 10 mg/kg, iv qd administered for 14 days measured on day 15 relative to control; type: functional; settings: read-out: TGI
A549 [13] = experiment: Antitumor activity against human A549 cells xenografted in BALB/cSLC-nu/nu mouse assessed as tumor growth inhibition at 10 mg/kg administered through oral gavage as qd for 14 days measured on day 15 relative to control; type: functional; settings: read-out: TGI
MV4-11 = experiment: Cytotoxicity against human MV4-11 cells assessed as decrease in cell viability after 48 hrs by MTT assay; type: functional, cell-based; settings: MV4-11, 48 h
THP-1 = experiment: Cytotoxicity against human THP1 cells assessed as decrease in cell viability after 48 hrs by MTT assay; type: functional, cell-based; settings: THP-1, 48 h
KG-1 = experiment: Cytotoxicity against human KG1 cells assessed as decrease in cell viability after 48 hrs by MTT assay; type: functional, cell-based; settings: KG-1, 48 h
[14] = Cytotoxicity against human KOCL48 cells assessed as decrease in cell viability after 48 hrs by MTT assay; type: functional, cell-based
MOLM-13 = experiment: Cytotoxicity against human MOLM13 cells assessed as decrease in cell viability after 48 hrs by MTT assay; type: functional, cell-based; settings: MOLM-13, 48 h
KG-1a = experiment: Cytotoxicity against human KG1a cells assessed as decrease in cell viability after 48 hrs by MTT assay; type: functional, cell-based
K562 = experiment: Cytotoxicity against human K562 cells assessed as decrease in cell viability after 48 hrs by MTT assay; type: functional, cell-based; settings: K562, 48 h
ML-2 = experiment: Cytotoxicity against human ML2 cells assessed as decrease in cell viability after 48 hrs by MTT assay; type: functional, cell-based; settings: ML-2, 48 h
U-937 = experiment: Cytotoxicity against human U937 cells assessed as decrease in cell viability after 48 hrs by MTT assay; type: functional, cell-based; settings: U-937, 48 h
BGC-823 = experiment: Antiproliferative activity against human BGC823 cells after 24 to 96 hrs by CCK8 assay; type: functional, cell-based
SGC-7901 = experiment: Antiproliferative activity against human SGC7901 cells after 24 to 96 hrs by CCK8 assay; type: functional, cell-based
[15] = Antitumor activity against human gastric cancer cells xenografted in NOD/SCID mouse assessed as tumor growth inhibition at 15 mg/kg, iv administered once in every 2 days for 2 weeks measured on day 15 relative to control; type: functional; settings: read-out: TGI
NCI-H69 = experiment: Cytotoxicity against human H69 cells assessed as decrease in cell viability after 72 hrs by MTT assay; type: functional, cell-based; settings: NCI-H69, 72 h
NCI-H82 = experiment: Cytotoxicity against human H82 cells assessed as decrease in cell viability after 72 hrs by MTT assay; type: functional, cell-based; settings: NCI-H82, 72 h
NCI-H524 = experiment: Cytotoxicity against human NCI-H524 cells assessed as decrease in cell viability after 72 hrs by MTT assay; type: functional, cell-based; settings: NCI-H524, 72 h
DMS-114 = experiment: Cytotoxicity against human DMS114 cells assessed as decrease in cell viability after 72 hrs by MTT assay; type: functional, cell-based; settings: DMS-114, 72 h
SBC-5 = experiment: Cytotoxicity against human SBC5 cells assessed as decrease in cell viability after 72 hrs by MTT assay; type: functional, cell-based; settings: SBC-5, 72 h
SBC-3 = experiment: Cytotoxicity against human SBC3 cells assessed as decrease in cell viability after 72 hrs by MTT assay; type: functional, cell-based; settings: SBC-3, 72 h
[16] = Cytotoxicity against human H69AR cells assessed as decrease in cell viability after 72 hrs by MTT assay; type: functional, cell-based
NCI-H2171 = experiment: Cytotoxicity against human NCI-H2171 cells assessed as decrease in cell viability after 72 hrs by MTT assay; type: functional, cell-based; settings: NCI-H2171, 72 h
NCI-H446 = experiment: Cytotoxicity against human NCI-H446 cells assessed as decrease in cell viability after 72 hrs by MTT assay; type: functional, cell-based; settings: NCI-H446, 72 h
NCI-H146 = experiment: Cytotoxicity against human NCI-H146 cells assessed as decrease in cell viability after 72 hrs by MTT assay; type: functional, cell-based; settings: NCI-H146, 72 h
DMS-273 = experiment: Cytotoxicity against human DMS273 cells assessed as decrease in cell viability after 72 hrs by MTT assay; type: functional, cell-based; settings: DMS-273, 72 h
CAKI-1 = experiment: Cytotoxicity against human Caki1 cells assessed as decrease in cell viability after 72 hrs by MTT assay; type: functional, cell-based; settings: CAKI-1, 72 h
769-P = experiment: Cytotoxicity against human 769-P cells assessed as decrease in cell viability after 72 hrs by MTT assay; type: functional, cell-based
786-0 = experiment: Cytotoxicity against human 786-O cells assessed as decrease in cell viability after 72 hrs by MTT assay; type: functional, cell-based; settings: 786-0, 72 h
[17] = Cytotoxicity against human VMRC-RCW cells assessed as decrease in cell viability after 72 hrs by MTT assay; type: functional, cell-based
CAKI-2 = experiment: Cytotoxicity against human Caki2 cells assessed as decrease in cell viability after 72 hrs by MTT assay; type: functional, cell-based; settings: CAKI-2, 72 h

SMILES: Cc1cc(O)c(-c2ccc([C@@H](C)CN(C)C)cc2)c2c1[nH]c(=O)c1sccc12
IC50 (Lu-99 cell line [1]): 7.6 nM | IC50 (Daudi): 25 nM | IC50 (MKN-1): 38 nM | IC50 (HCT-116): 33 nM | IC50 (MIA PaCa-2): 30 nM | IC50 (UMUC3): 32 nM | IC50 (MKN-45): 39 nM | IC50 (DU-4475 [2]): 53 nM | IC50 (A549 [3]): 31 nM | IC50 (CWR22R [4]): 50 nM | IC50 (T47D [5]): 72 nM | IC50 (HepG2): 19 nM | IC50 (MDA-MB-231): 73 nM | inhibition in vivo at 40 mg/kg (Lu-99 cell line [6]): 110% | inhibition in vivo at 100 mg/kg (Lu-99 cell line [7]): 113%

IC50 (T47D [9]): 4.3 nM | IC50 (A549 [11]): 6.7 nM | IC50 (BGC-823): 25 nM | IC50 (SGC-7901): 25 nM
SMILES: CC(=O)c1cnc2ccc(-c3cc(Cl)c(O)c(Cl)c3)nc2c1N[C@H]1CC[C@H](CN(C)C)CC1
IC50 (DU-4475 [8]): 2.3 nM | IC50 (CWR22R [10]): 6 nM | inhibition in vivo at 10 mg/kg (A549 [12]): 108% | inhibition in vivo at 10 mg/kg (A549 [13]): 124% | IC50 (MV4-11): 7.9 nM | IC50 (THP-1): 15.6 nM | IC50 (KG-1): 16.9 nM | IC50 [14]: 16.9 nM | IC50 (MOLM-13): 17.5 nM | IC50 (KG-1a): 26.4 nM | IC50 (K562): 33 nM | IC50 (ML-2): 33.8 nM | IC50 (U-937): 69.8 nM | inhibition in vivo at 15 mg/kg [15]: 106 to 112% | IC50 (NCI-H69): 0.8 nM | IC50 (NCI-H82): 1.7 nM | IC50 (NCI-H524): 1.9 nM | IC50 (DMS-114): 2.1 nM | IC50 (SBC-5): 2.8 nM | IC50 (SBC-3): 4.3 nM | IC50 [16]: 4.4 nM | IC50 (NCI-H2171): 4.7 nM | IC50 (NCI-H446): 6.2 nM | IC50 (NCI-H146): 7.9 nM | IC50 (DMS-273): 8.4 nM | IC50 (CAKI-1): 12.4 nM | IC50 (769-P): 20.1 nM | IC50 (786-0): 23.9 nM | IC50 [17]: 25.5 nM | IC50 (CAKI-2): 38.7 nM
